What follows are compounds tested on LXRα and/or LXRβ (assay: LXR/LXRE co-transfection assay (luciferase reporter, CV-1 cells)). Conditions: IC50 or EC50 for LXR (LXRα and/or LXRβ, not distinguished), tested as described in Example 109, CV-1 cells.
Assay type: cell-based, human
How it was run: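 Luciferase readout after 20 h compound exposure at 37 °C in CV-1 cells transiently expressing human LXRα or LXRβ with RXRα and an LXRE-driven reporter. Dose-response over 8 points at ½-log spacing, 4 wells each, fitted for EC50/IC50; values average ≥3 independent experiments, efficacy as % of high control.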

**Q.** Which EC50 does the source give for `CS(=O)(=O)c1cccc(-c2ccc(-c3cc(C(=O)NCC(F)(F)F)nn3-c3ncccc3C(F)(F)F)s2)c1` [Example 1236, 5-{5-[3-(methylsulfonyl)phenyl]-2-thienyl}-N-(2,2,2-trifluoroethyl)-1-[3-(trifluoromethyl)pyridin-2-yl]-1H-pyrazole-3-carboxamide] here?
**A.** 1000 to 10000 nM

**Q.** For `CC(C)(O)c1cc(-c2ccc(-c3cccc(S(C)(=O)=O)c3)cc2Cl)n(-c2cnccc2C(F)(F)F)n1` [Example 117, 2-(5-(3-chloro-3′-(methylsulfonyl)biphenyl-4-yl)-1-(4-(trifluoromethyl)pyridin-3-yl)-1H-pyrazol-3-yl)propan-2-ol], which EC50 is on record?
**A.** 1000 to 10000 nM

**Q.** For `CS(=O)(=O)c1cccc(-c2ccc(-c3cc(C(O)C(F)(F)F)nn3-c3ccccc3Cl)s2)c1` (stereo not drawn) [Example 1209, 1-[1-(2-chlorophenyl)-5-{5-[3-(methylsulfonyl)phenyl]-2-thienyl}-1H-pyrazol-3-yl]-2,2,2-trifluoroethanol], which EC50 is on record?
**A.** < 1000 nM

**Q.** How did the EC50 turn out when `COC(=O)c1cccc(-c2ccc(-c3cc(C(F)(F)F)nn3-c3ccccc3Cl)cc2)c1` [Example 1208, methyl 4′-[1-(2-chlorophenyl)-3-(trifluoromethyl)-1H-pyrazol-5-yl]biphenyl-3-carboxylate] was run?
**A.** 1000 to 10000 nM

**Q.** With `Cc1c(Cl)cccc1-n1nc(C(C)(C)O)cc1-c1ccc(-c2cccc(S(C)(=O)=O)c2)s1` [Example 1340, 2-[1-(3-chloro-2-methylphenyl)-5-{5-[3-(methylsulfonyl)phenyl]-2-thienyl}-1H-pyrazol-3-yl]propan-2-ol] as the compound, how does the EC50 read?
**A.** < 1000 nM

**Q.** Which EC50 does the source give for `CC(C)(O)c1cc(-c2ccc(-c3cccc(S(C)(=O)=O)c3)s2)n(-c2cccc3c2OC(F)(F)O3)n1` [Example 1342, 2-[1-(2,2-difluoro-1,3-benzodioxol-4-yl)-5-{5-[3-(methylsulfonyl)phenyl]-2-thienyl}-1H-pyrazol-3-yl]propan-2-ol] here?
**A.** < 1000 nM

**Q.** How did the EC50 turn out when `CCC(O)CS(=O)(=O)c1cccc(-c2ccc(-c3cc(C(F)(F)F)nn3-c3cc(Cl)ccc3Cl)s2)c1` (stereo not drawn) [Example 1146, 1-[(3-{5-[1-(2,5-dichlorophenyl)-3-(trifluoromethyl)-1H-pyrazol-5-yl]-2-thienyl}phenyl)sulfonyl]butan-2-ol] was run?
**A.** < 1000 nM

**Q.** `CC(=O)c1cc(-c2ccc(-c3cccc(S(C)(=O)=O)c3)s2)n(-c2cc(Cl)ccc2Oc2ccccc2)n1` [Example 1213, 1-(1-[5-chloro-2-(phenyloxy)phenyl]-5-{5-[3-(methylsulfonyl)phenyl]-2-thienyl}-1H-pyrazol-3-yl)ethanone] was tested. Which EC50 did it give?
**A.** < 1000 nM

**Q.** `Cc1cc(-c2cccc(S(C)(=O)=O)c2)ccc1-c1cc(C(=O)N2CCCC2)nn1-c1c(Cl)cccc1Cl` [Example 148, (1-(2,6-dichlorophenyl)-5-(3-methyl-3′-(methylsulfonyl)biphenyl-4-yl)-1H-pyrazol-3-yl)(pyrrolidin-1-yl)methanone] was tested. Which EC50 did it give?
**A.** < 1000 nM

**Q.** `CS(=O)(=O)c1cccc(-c2ccc(-c3cc(C(=O)N4CCCC4)nn3-c3ccccc3Cl)s2)c1` [Example 1129, 1-(2-chlorophenyl)-5-{5-[3-(methylsulfonyl)phenyl]-2-thienyl}-3-(pyrrolidin-1-ylcarbonyl)-1H-pyrazole] was tested. Which EC50 did it give?
**A.** < 1000 nM

**Q.** For `CS(=O)(=O)c1cccc(-c2ccc(-c3cc(Cc4nnn[nH]4)nn3-c3ccccc3Cl)s2)c1` [Example 1136, 5-{[1-(2-chlorophenyl)-5-{5-[3-(methylsulfonyl)phenyl]-2-thienyl}-1H-pyrazol-3-yl]methyl}-1H-tetrazole], which EC50 is on record?
**A.** 1000 to 10000 nM

**Q.** How did the EC50 turn out when `CC(C)CNC(=O)c1cc(-c2ccc(-c3cccc(S(C)(=O)=O)c3)cc2Cl)n(-c2cccnc2C(F)(F)F)n1` [Example 1388, 5-(3-chloro-3′-(methylsulfonyl)biphenyl-4-yl)-N-isobutyl-1-(2-(trifluoromethyl)pyridin-3-yl)-1H-pyrazole-3-carboxamide] was run?
**A.** < 1000 nM

**Q.** With `C=C(C)c1cc(-c2ccc(-c3cccc(S(C)(=O)=O)c3)s2)n(-c2ccccc2Cl)n1` [Example 123, 1-(2-chlorophenyl)-5-(5-(3-(methylsulfonyl)phenyl)thiophen-2-yl)-3-(prop-1-en-2-yl)-1H-pyrazole] as the compound, how does the EC50 read?
**A.** < 1000 nM

**Q.** Which EC50 does the source give for `COc1cccc(-c2ccc(-c3cc(C(C)(C)O)nn3-c3ccccc3Cl)s2)c1OC` [Example 859, 2-[5-{5-[2,3-bis(methyloxy)phenyl]-2-thienyl}-1-(2-chlorophenyl)-1H-pyrazol-3-yl]propan-2-ol] here?
**A.** 1000 to 10000 nM

**Q.** For `CS(=O)(=O)c1cccc(-c2ccc(-c3cc(CN4CCCC4)nn3-c3ccccc3Cl)s2)c1` [Example 456, 1-(2-chlorophenyl)-5-{5-[3-(methylsulfonyl)phenyl]-2-thienyl}-3-(pyrrolidin-1-ylmethyl)-1H-pyrazole], which EC50 is on record?
**A.** 1000 to 10000 nM

**Q.** With `CC(C)(O)c1cc(-c2ccc(-c3cc(C(F)(F)F)nn3-c3ccccc3Cl)s2)cc(S(C)(=O)=O)c1` [Example 1318, 2-[3-{5-[1-(2-chlorophenyl)-3-(trifluoromethyl)-1H-pyrazol-5-yl]-2-thienyl}-5-(methylsulfonyl)phenyl]propan-2-ol] as the compound, how does the EC50 read?
**A.** < 1000 nM

**Q.** `COC(=O)c1cc(-c2ccccc2Cl)n(-c2ccc(-c3cccc(S(C)(=O)=O)c3)cc2)n1` [Example 1218, methyl 5-(2-chlorophenyl)-1-[3′-(methylsulfonyl)biphenyl-4-yl]-1H-pyrazole-3-carboxylate] was tested. Which EC50 did it give?
**A.** < 1000 nM

**Q.** How did the EC50 turn out when `CC(C)(O)c1nn(-c2cnccc2C(F)(F)F)c(-c2ccc(-c3cccc(S(C)(=O)=O)c3)s2)c1Br` [Example 1369, 2-(4-bromo-5-{5-[3-(methylsulfonyl)phenyl]-2-thienyl}-1-[4-(trifluoromethyl)pyridin-3-yl]-1H-pyrazol-3-yl)propan-2-ol] was run?
**A.** < 1000 nM

**Q.** `CC(C)(O)c1cc(-c2cccc(F)c2F)n(-c2ccc(-c3cccc(S(C)(=O)=O)c3)cc2F)n1` [Example 121, 2-(5-(2,3-difluorophenyl)-1-(3-fluoro-3′-(methylsulfonyl)biphenyl-4-yl)-1H-pyrazol-3-yl)propan-2-ol] was tested. Which EC50 did it give?
**A.** 1000 to 10000 nM

**Q.** Which EC50 does the source give for `CCS(=O)(=O)c1cccc(-c2ccc(-c3cc(C(C)(C)C(=O)O)nn3-c3ccccc3Cl)s2)c1` [Example 1302, 2-[1-(2-chlorophenyl)-5-{5-[3-(ethylsulfonyl)phenyl]-2-thienyl}-1H-pyrazol-3-yl]-2-methylpropanoic acid] here?
**A.** 1000 to 10000 nM

**Q.** Which EC50 does the source give for `O=C(O)CCNC(=O)c1ccc(-c2cc(C(F)(F)F)nn2-c2ccccc2Cl)cc1` [Example 1363, N-({4-[1-(2-chlorophenyl)-3-(trifluoromethyl)-1H-pyrazol-5-yl]phenyl}carbonyl)-beta-alanine] here?
**A.** 1000 to 10000 nM

**Q.** For `CN1CCN(CCn2nc(C(F)(F)F)cc2-c2ccc(-c3cccc(S(C)(=O)=O)c3)cc2)CC1` [Example 1223, 1-methyl-4-(2-{5-[3′-(methylsulfonyl)biphenyl-4-yl]-3-(trifluoromethyl)-1H-pyrazol-1-yl}ethyl)piperazine], which EC50 is on record?
**A.** 1000 to 10000 nM

**Q.** With `CC(C)(O)c1cc(-c2ccc(-c3cccc(S(C)(=O)=O)c3)s2)n(-c2cccnc2)n1` [Example 1346, 2-(5-{5-[3-(methylsulfonyl)phenyl]-2-thienyl}-1-pyridin-3-yl-1H-pyrazol-3-yl)propan-2-ol] as the compound, how does the EC50 read?
**A.** < 1000 nM

**Q.** For `CC(C)(O)c1cc(-c2ccc(-c3cccc(S(C)(=O)=O)c3)s2)n(-c2ccccc2)n1` [Example 1262, 2-(5-{5-[3-(methylsulfonyl)phenyl]-2-thienyl}-1-phenyl-1H-pyrazol-3-yl)propan-2-ol], which EC50 is on record?
**A.** < 1000 nM

**Q.** How did the EC50 turn out when `CCC(O)c1cc(-c2ccc(-c3cccc(S(C)(=O)=O)c3)s2)n(-c2ccccc2Cl)n1` (stereo not drawn) [Example 1175, 1-[1-(2-chlorophenyl)-5-{5-[3-(methylsulfonyl)phenyl]-2-thienyl}-1H-pyrazol-3-yl]propan-1-ol] was run?
**A.** < 1000 nM

**Q.** With `CC(C)(O)c1nn(-c2ccccc2Cl)c(-c2ccc(-c3cccc(S(C)(=O)=O)c3)s2)c1Br` [Example 1278, 2-[4-bromo-1-(2-chlorophenyl)-5-{5-[3-(methylsulfonyl)phenyl]-2-thienyl}-1H-pyrazol-3-yl]propan-2-ol] as the compound, how does the EC50 read?
**A.** < 1000 nM

**Q.** `CC(C)(CNC=O)c1cc(-c2ccc(-c3cccc(S(C)(=O)=O)c3)s2)n(-c2ccccc2Cl)n1` [Example 1204, N-{2-[1-(2-chlorophenyl)-5-{5-[3-(methylsulfonyl)phenyl]-2-thienyl}-1H-pyrazol-3-yl]-2-methylpropyl}formamide] was tested. Which EC50 did it give?
**A.** 1000 to 10000 nM

**Q.** With `CC(C)(O)c1cc(-c2sc(-c3cccc(S(C)(=O)=O)c3)cc2Br)n(-c2cccc(F)c2C(F)(F)F)n1` [Example 49, 2-(5-(3-bromo-5-(3-(methylsulfonyl)phenyl)thiophen-2-yl)-1-(3-fluoro-2-(trifluoromethyl)phenyl)-1H-pyrazol-3-yl)propan-2-ol] as the compound, how does the EC50 read?
**A.** < 1000 nM

**Q.** Which EC50 does the source give for `CON(C)C(=O)c1cc(-c2ccc(-c3cccc(S(C)(=O)=O)c3)s2)n(-c2ccccc2Cl)n1` [Example 1162, 1-(2-chlorophenyl)-N-methyl-N-(methyloxy)-5-{5-[3-(methylsulfonyl)phenyl]-2-thienyl}-1H-pyrazole-3-carboxamide] here?
**A.** < 1000 nM

**Q.** With `CC(C)(O)c1nn(-c2ccccc2Cl)c(-c2ccc(-c3cccc(S(C)(=O)=O)c3)s2)c1Cl` [Example 1294, 2-[4-chloro-1-(2-chlorophenyl)-5-{5-[3-(methylsulfonyl)phenyl]-2-thienyl}-1H-pyrazol-3-yl]propan-2-ol] as the compound, how does the EC50 read?
**A.** < 1000 nM

**Q.** `CC(C)(O)c1cc(-c2ccc(-c3cccc4[nH]ccc34)cc2)n(-c2ccccc2Cl)n1` [Example 1286, 2-{1-(2-chlorophenyl)-5-[4-(1H-indol-4-yl)phenyl]-1H-pyrazol-3-yl}propan-2-ol] was tested. Which EC50 did it give?
**A.** 1000 to 10000 nM

**Q.** How did the EC50 turn out when `CCN(CC)CCN(CC)C(=O)c1cc(-c2ccc(-c3cccc(S(C)(=O)=O)c3)s2)n(-c2ccccc2Cl)n1` [Example 587, 1-(2-chlorophenyl)-N-[2-(diethylamino)ethyl]-N-ethyl-5-{5-[3-(methylsulfonyl)phenyl]-2-thienyl}-1H-pyrazole-3-carboxamide] was run?
**A.** < 1000 nM

**Q.** Which EC50 does the source give for `FC(F)(F)c1cc(-c2cccc(OCCN3CCOCC3)c2)n(-c2ccccc2Cl)n1` [Example 67, 4-(2-(3-(1-(2-chlorophenyl)-3-(trifluoromethyl)-1H-pyrazol-5-yl)phenoxy)-ethyl)morpholine] here?
**A.** 1000 to 10000 nM
